Details: 101.33 kPa, Liquid, Vibrating wire viscometry

CC(C)CCCC(C)CCCC(C)CCCCC(C)CCCC(C)CCCC(C)C (configuration not stated) [2,6,10,15,19,23-hexamethyltetracosane]
Details | viscosity [mPa·s]
283.77 K | 60.2
288.47 K | 46.1
293.29 K | 35.59
298.12 K | 27.95
303.07 K | 22.45
308.09 K | 18.3
313.13 K | 15
318.17 K | 12.5
323.19 K | 10.57
328.26 K | 8.99
333.2 K | 7.8
338.18 K | 6.81
343.07 K | 6
348.08 K | 5.32
353.08 K | 4.72
358.13 K | 4.2
362.98 K | 3.78

CCCCC(CC)COC(=O)c1ccccc1C(=O)OCC(CC)CCCC (configuration not stated) [bis(2-ethylhexyl) 1,2-benzenedicarboxylate]
Details | viscosity [mPa·s]
288.53 K | 110.7
293.38 K | 78.73
298.29 K | 57.94
303.33 K | 43.27
308.23 K | 33.17
313.18 K | 26.13
317.99 K | 21.08
323.02 K | 16.96
328.12 K | 13.91
333.19 K | 11.62
337.71 K | 9.903
343.53 K | 8.268
348.48 K | 7.158
353.68 K | 6.199

CCCCC(CC)COC(=O)CCCCCCCCC(=O)OCC(CC)CCCC (configuration not stated) [bis(2-ethylhexyl) decanedioate]
Details | viscosity [mPa·s]
284.06 K | 31.95
288.71 K | 25.84
293.37 K | 21.14
298.26 K | 17.42
303.1 K | 14.55
307.9 K | 12.37
313.24 K | 10.4
318.26 K | 9.023
323.17 K | 7.865
328.26 K | 6.878
333.2 K | 6.067
338.16 K | 5.435
342.81 K | 4.883
348.07 K | 4.38
352.98 K | 3.987
358.09 K | 3.626

Source: the NIST ThermoML archive (doi:10.1021/je4005245)
